Measured values taken from patent US11306101B2 (Celgene Corporation, priority 2019, dated 2022).

Target: T1, CK1α (Homo sapiens, UniProt P48729+Q96SW2)
T1 construct: expressed in transfected cells
Assay: CK1α ePL degradation assay in MDS-L cells
Format: cell-based
Settings: MDS-L cells expressing ePL-tagged CK1α; for DC50: concentration giving 50% CK1α degradation vs DMSO control; for Y: lowest measured CK1α level normalized to DMSO control
Outline: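 Degradation efficiency is reported as Y value, the minimum CK1α level (percent of DMSO control) across doses. Readout used InCELL Hunter luminescent detection after MDS-L cell exposure at 37° C for stated times, doses 10 μM down to 0.0005 μM in 3-fold steps.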

T1 sequence (P48729 whole entry): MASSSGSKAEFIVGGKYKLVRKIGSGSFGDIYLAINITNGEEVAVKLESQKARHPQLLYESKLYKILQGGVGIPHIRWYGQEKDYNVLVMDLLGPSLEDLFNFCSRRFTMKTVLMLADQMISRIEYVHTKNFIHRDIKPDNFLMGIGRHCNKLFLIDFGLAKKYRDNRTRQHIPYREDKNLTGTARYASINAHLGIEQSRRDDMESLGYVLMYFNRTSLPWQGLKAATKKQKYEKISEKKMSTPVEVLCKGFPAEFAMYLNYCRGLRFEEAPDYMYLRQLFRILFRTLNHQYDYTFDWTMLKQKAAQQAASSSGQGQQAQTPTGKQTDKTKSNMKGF
T1 sequence (Q96SW2 whole entry): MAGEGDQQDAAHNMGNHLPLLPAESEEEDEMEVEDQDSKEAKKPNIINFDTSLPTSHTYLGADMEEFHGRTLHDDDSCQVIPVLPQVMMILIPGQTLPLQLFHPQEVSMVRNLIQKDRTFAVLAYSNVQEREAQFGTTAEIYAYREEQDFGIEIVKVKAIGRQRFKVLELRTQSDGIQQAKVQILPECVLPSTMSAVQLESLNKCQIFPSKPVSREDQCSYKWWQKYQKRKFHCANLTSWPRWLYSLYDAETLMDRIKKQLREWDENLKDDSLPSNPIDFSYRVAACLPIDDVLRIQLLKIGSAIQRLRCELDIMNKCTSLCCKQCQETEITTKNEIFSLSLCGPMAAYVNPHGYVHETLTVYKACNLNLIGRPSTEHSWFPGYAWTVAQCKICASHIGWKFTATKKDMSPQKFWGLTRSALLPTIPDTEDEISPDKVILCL
T1 sequence (Q16531 whole entry partner): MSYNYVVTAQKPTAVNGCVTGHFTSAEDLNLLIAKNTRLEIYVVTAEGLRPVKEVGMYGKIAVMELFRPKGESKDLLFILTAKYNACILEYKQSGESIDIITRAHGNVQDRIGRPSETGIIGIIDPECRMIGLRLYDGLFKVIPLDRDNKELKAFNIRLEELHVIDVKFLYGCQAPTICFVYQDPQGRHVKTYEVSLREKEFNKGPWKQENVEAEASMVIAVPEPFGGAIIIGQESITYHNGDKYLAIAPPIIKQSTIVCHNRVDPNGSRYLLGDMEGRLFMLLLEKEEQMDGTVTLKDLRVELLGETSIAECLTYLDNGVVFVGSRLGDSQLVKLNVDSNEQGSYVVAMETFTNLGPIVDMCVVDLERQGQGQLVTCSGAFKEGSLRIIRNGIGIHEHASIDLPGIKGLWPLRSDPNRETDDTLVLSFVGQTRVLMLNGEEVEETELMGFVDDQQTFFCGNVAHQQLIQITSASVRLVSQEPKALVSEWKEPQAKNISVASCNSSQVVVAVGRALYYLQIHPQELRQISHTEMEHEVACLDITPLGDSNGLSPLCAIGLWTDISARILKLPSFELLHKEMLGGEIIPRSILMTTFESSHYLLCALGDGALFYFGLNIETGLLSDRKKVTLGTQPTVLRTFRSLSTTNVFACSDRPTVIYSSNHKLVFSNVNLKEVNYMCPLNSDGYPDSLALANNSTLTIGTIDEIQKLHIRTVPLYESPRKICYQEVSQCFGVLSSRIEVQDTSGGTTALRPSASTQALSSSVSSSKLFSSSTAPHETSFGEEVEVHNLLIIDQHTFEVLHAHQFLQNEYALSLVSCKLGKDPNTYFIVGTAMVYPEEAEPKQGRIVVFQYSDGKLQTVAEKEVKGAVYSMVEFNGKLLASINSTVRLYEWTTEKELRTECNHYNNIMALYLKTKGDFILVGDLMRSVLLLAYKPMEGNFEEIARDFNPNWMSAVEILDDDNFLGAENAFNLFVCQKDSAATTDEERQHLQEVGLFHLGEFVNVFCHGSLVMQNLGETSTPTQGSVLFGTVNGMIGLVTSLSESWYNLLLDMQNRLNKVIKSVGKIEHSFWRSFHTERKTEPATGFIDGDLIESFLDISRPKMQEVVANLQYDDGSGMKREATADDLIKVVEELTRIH

Row | Compound | DC50 [nM] | Y
1 | O=C1CCC(N2Cc3c(ccc(C(=O)N[C@H](c4cccc(C(F)(F)F)c4)C(F)(F)F)c3F)C2=O)C(=O)N1 (stereo partly drawn) [Example 97, 2-(2,6-dioxopiperidin-3-yl)-4-fluoro-1-oxo-N-((R)-2,2,2-trifluoro-1-(3-(trifluoromethyl)phenyl)ethyl)isoindoline-5-carboxamide] | 100 to 500 | ** (a Y value (shown as**) of 20%<Y≤35%)
2 | O=C1CCC(N2Cc3cc(C(=O)NC(C4CCC5(CC4)CC(O)C5)C(F)(F)F)ccc3C2=O)C(=O)N1 (stereo not drawn) [Example 176, 2-(2,6-dioxopiperidin-3-yl)-1-oxo-N-(2,2,2-trifluoro-1-(2-hydroxyspiro[3.5]nonan-7-yl)ethyl)isoindoline-5-carboxamide] | 100 to 500 | * (a Y value (shown as *) of 0<Y≤20%)
3 | O=C1CCC(N2Cc3cc(C(=O)N[C@H](c4ccc(CN5CC6(COC6)C5)cc4)C(F)(F)F)ccc3C2=O)C(=O)N1 (stereo partly drawn) [Example 179, N-((1R)-1-(4-(2-oxa-6-azaspiro[3.3]heptan-6-ylmethyl)phenyl)-2,2,2-trifluoroethyl)-2-(2,6-dioxopiperidin-3-yl)-1-oxoisoindoline-5-carboxamide] | 100 to 500 | * (a Y value (shown as *) of 0<Y≤20%)
4 | O=C1CCC(N2Cc3cc(C(=O)N[C@@H](C(F)(F)F)C4(C(F)(F)F)CC4)ccc3C2=O)C(=O)N1 (stereo partly drawn) [Example 75, 2-(2,6-dioxopiperidin-3-yl)-1-oxo-N-((R)-2,2,2-trifluoro-1-(1-(trifluoromethyl)cyclopropyl)ethyl)isoindoline-5-carboxamide] | 100 to 500 | ** (a Y value (shown as**) of 20%<Y≤35%)
5 | CN1CCN(c2cccc([C@@H](NC(=O)c3ccc4c(c3)CN(C3CCC(=O)NC3=O)C4=O)C(F)(F)F)c2)CC1 (stereo partly drawn) [Example 209, 2-(2,6-dioxopiperidin-3-yl)-1-oxo-N-((R)-2,2,2-trifluoro-1-(3-(4-methylpiperazin-1-yl)phenyl)ethyl)isoindoline-5-carboxamide] | 100 to 500 | ** (a Y value (shown as**) of 20%<Y≤35%)
6 | CC1([C@@H](NC(=O)c2ccc3c(c2)CN(C2CCC(=O)NC2=O)C3=O)C(F)(F)F)COC1 (stereo partly drawn) [Example 94, 2-(2,6-dioxopiperidin-3-yl)-1-oxo-N-((R)-2,2,2-trifluoro-1-(3-methyloxetan-3-yl)ethyl)isoindoline-5-carboxamide] | 100 to 500 | ** (a Y value (shown as**) of 20%<Y≤35%)
7 | O=C1CCC(N2Cc3cc(C(=O)N[C@H](c4ccc(CN5CCOCC5)cc4)C(F)(F)F)ccc3C2=O)C(=O)N1 (stereo partly drawn) [Example 142, 2-(2,6-dioxopiperidin-3-yl)-1-oxo-N-((R)-2,2,2-trifluoro-1-(4-(morpholinomethyl)phenyl)ethyl)isoindoline-5-carboxamide] | < 100 | * (a Y value (shown as *) of 0<Y≤20%)
8 | CC(C)[C@H](C)NC(=O)c1ccc2c(c1)CN(C1CCC(=O)NC1=O)C2=O (stereo partly drawn) [Example 28] | 100 to 500 | ** (a Y value (shown as**) of 20%<Y≤35%)
9 | Cn1cc([C@@H](NC(=O)c2ccc3c(c2)CN(C2CCC(=O)NC2=O)C3=O)C(F)(F)F)cn1 (stereo partly drawn) [Example 70, 2-(2,6-dioxopiperidin-3-yl)-1-oxo-N-((R)-2,2,2-trifluoro-1-(1-methyl-1H-pyrazol-4-yl)ethyl)isoindoline-5-carboxamide] | 100 to 500 | ** (a Y value (shown as**) of 20%<Y≤35%)
10 | O=C1CCC(N2Cc3c(ccc(C(=O)N[C@H](c4ccc(F)cc4)C(F)(F)F)c3Cl)C2=O)C(=O)N1 (stereo partly drawn) [Example 153, 4-chloro-2-(2,6-dioxopiperidin-3-yl)-1-oxo-N-((R)-2,2,2-trifluoro-1-(4-fluorophenyl)ethyl)isoindoline-5-carboxamide] | 100 to 500 | ** (a Y value (shown as**) of 20%<Y≤35%)
11 | CC(C)Oc1cccc([C@@H](NC(=O)c2ccc3c(c2)CN(C2CCC(=O)NC2=O)C3=O)C(F)(F)F)c1 (stereo partly drawn) [Example 102, 2-(2,6-dioxopiperidin-3-yl)-1-oxo-N-((R)-2,2,2-trifluoro-1-(3-isopropoxyphenyl)ethyl)isoindoline-5-carboxamide] | < 100 | ** (a Y value (shown as**) of 20%<Y≤35%)
12 | CC(C)[C@H](NC(=O)c1ccc2c(c1)CN(C1CCC(=O)NC1=O)C2=O)c1ccccc1 (stereo partly drawn) [Example 154, 2-(2,6-dioxopiperidin-3-yl)-N-((S)-2-methyl-1-phenylpropyl)-1-oxoisoindoline-5-carboxamide] | < 100 | * (a Y value (shown as *) of 0<Y≤20%)
13 | O=C1CCC(N2Cc3cc(C(=O)N[C@H](CC(F)(F)F)c4cccc(Cl)c4)ccc3C2=O)C(=O)N1 (stereo partly drawn) [Example 194, N-((R)-1-(3-chlorophenyl)-3,3,3-trifluoropropyl)-2-(2,6-dioxopiperidin-3-yl)-1-oxoisoindoline-5-carboxamide] | < 100 | ** (a Y value (shown as**) of 20%<Y≤35%)
14 | O=C1CCC(N2Cc3cc(C(=O)N[C@H](c4c(F)cccc4Cl)C(F)(F)F)ccc3C2=O)C(=O)N1 (stereo partly drawn) [Example 151, N-((R)-1-(2-chloro-6-fluorophenyl)-2,2,2-trifluoroethyl)-2-(2,6-dioxopiperidin-3-yl)-1-oxoisoindoline-5-carboxamide] | < 100 | * (a Y value (shown as *) of 0<Y≤20%)
15 | CC(C)[C@H](NC(=O)c1ccc2c(c1)CN(C1CCC(=O)NC1=O)C2=O)c1ccc(F)cc1 (stereo partly drawn) [Example 170, 2-(2,6-dioxopiperidin-3-yl)-N-((S)-1-(4-fluorophenyl)-2-methylpropyl)-1-oxoisoindoline-5-carboxamide] | < 100 | * (a Y value (shown as *) of 0<Y≤20%)
16 | CC[C@H](NC(=O)c1ccc2c(c1)CN(C1CCC(=O)NC1=O)C2=O)c1ccccc1 (stereo partly drawn) [Example 6] | < 100 | * (a Y value (shown as *) of 0<Y≤20%)

Now from value to molecule:

Row | DC50 [nM] | Y | Compound
17 | < 100 | * (a Y value (shown as *) of 0<Y≤20%) | O=C1CCC(N2Cc3cc(C(=O)N[C@H](c4ccc(F)cc4F)C(F)(F)F)ccc3C2=O)C(=O)N1 (stereo partly drawn) [Example 80, N-((R)-1-(2,4-difluorophenyl)-2,2,2-trifluoroethyl)-2-(2,6-dioxopiperidin-3-yl)-1-oxoisoindoline-5-carboxamide]
18 | < 100 | * (a Y value (shown as *) of 0<Y≤20%) | O=C1CCC(N2Cc3c(ccc(C(=O)N[C@H](c4ccc(F)cc4Cl)C(F)(F)F)c3F)C2=O)C(=O)N1 (stereo partly drawn) [Example 145, N-((R)-1-(2-chloro-4-fluorophenyl)-2,2,2-trifluoroethyl)-2-(2,6-dioxopiperidin-3-yl)-4-fluoro-1-oxoisoindoline-5-carboxamide]
19 | < 100 | * (a Y value (shown as *) of 0<Y≤20%) | C[C@H](NC(=O)c1ccc2c(c1)CN(C1CCC(=O)NC1=O)C2=O)c1ccccc1 (stereo partly drawn) [Example 1, 2-(2,6-Dioxopiperidin-3-yl)-1-oxo-N—((S)-1-phenylethyl)isoindoline-5-carboxamide]
20 | < 100 | ** (a Y value (shown as**) of 20%<Y≤35%) | O=C1CCC(N2Cc3c(ccc(C(=O)N[C@H](c4ccccc4)C(F)(F)F)c3F)C2=O)C(=O)N1 (stereo partly drawn) [Example 89, 2-(2,6-dioxopiperidin-3-yl)-4-fluoro-1-oxo-N-((R)-2,2,2-trifluoro-1-phenylethyl)isoindoline-5-carboxamide]
21 | < 100 | * (a Y value (shown as *) of 0<Y≤20%) | O=C1CCC(N2Cc3cc(C(=O)N[C@H](c4ncc(Cl)cc4F)C(F)(F)F)ccc3C2=O)C(=O)N1 (stereo partly drawn) [Example 127, N-((R)-1-(5-chloro-3-fluoropyridin-2-yl)-2,2,2-trifluoroethyl)-2-(2,6-dioxopiperidin-3-yl)-1-oxoisoindoline-5-carboxamide]
22 | < 100 | * (a Y value (shown as *) of 0<Y≤20%) | O=C1CCC(N2Cc3cc(C(=O)N[C@H](c4ccccc4C(F)(F)F)C(F)(F)F)c(F)cc3C2=O)C(=O)N1 (stereo partly drawn) [Example 88, 2-(2,6-dioxopiperidin-3-yl)-6-fluoro-1-oxo-N-((R)-2,2,2-trifluoro-1-(2-(trifluoromethyl)phenyl)ethyl)isoindoline-5-carboxamide]
23 | < 100 | * (a Y value (shown as *) of 0<Y≤20%) | O=C1CCC(N2Cc3c(ccc(C(=O)N[C@H](c4ccc(Cl)cc4)C(F)(F)F)c3F)C2=O)C(=O)N1 (stereo partly drawn) [Example 93, N-((R)-1-(4-chlorophenyl)-2,2,2-trifluoroethyl)-2-(2,6-dioxopiperidin-3-yl)-4-fluoro-1-oxoisoindoline-5-carboxamide]
24 | < 100 | * (a Y value (shown as *) of 0<Y≤20%) | O=C1CCC(N2Cc3cc(C(=O)N[C@H](c4cccc(CN5CCOCC5)c4)C(F)(F)F)ccc3C2=O)C(=O)N1 (stereo partly drawn) [Example 140, 2-(2,6-dioxopiperidin-3-yl)-1-oxo-N-((R)-2,2,2-trifluoro-1-(3-(morpholinomethyl)phenyl)ethyl)isoindoline-5-carboxamide]
25 | < 100 | * (a Y value (shown as *) of 0<Y≤20%) | O=C1CCC(N2Cc3cc(C(=O)N[C@H](c4ccccc4OC4CC4)C(F)(F)F)ccc3C2=O)C(=O)N1 (stereo partly drawn) [Example 161, N-((R)-1-(2-cyclopropoxyphenyl)-2,2,2-trifluoroethyl)-2-(2,6-dioxopiperidin-3-yl)-1-oxoisoindoline-5-carboxamide]
26 | < 100 | * (a Y value (shown as *) of 0<Y≤20%) | O=C1CCC(N2Cc3cc(C(=O)N[C@H](c4ccc(Cl)cc4)C(F)(F)F)ccc3C2=O)C(=O)N1 (stereo partly drawn) [Example 42, N-((R)-1-(4-chlorophenyl)-2,2,2-trifluoroethyl)-2-(2,6-dioxopiperidin-3-yl)-1-oxoisoindoline-5-carboxamide]
27 | < 100 | * (a Y value (shown as *) of 0<Y≤20%) | O=C1CCC(N2Cc3cc(C(=O)N[C@H](CC(F)(F)F)c4ccccc4F)ccc3C2=O)C(=O)N1 (stereo partly drawn) [Example 195, 2-(2,6-dioxopiperidin-3-yl)-1-oxo-N-((R)-3,3,3-trifluoro-1-(2-fluorophenyl)propyl)isoindoline-5-carboxamide]
